Our source for the EC50 values is patent US8415351B2 (priority 2007, dated 2013).

In test [1] the test system is genotype 1a-H77 subgenomic replicon cell line. The experiment in a line: microbe, parasite or virus in culture. The test is classed as cell-based, HCV. The following applies: Hepatitis C virus, read-out: EC50 1a.
For test [2], the system named is genotype 1b-Con1 subgenomic replicon cell line. In words: microbe, parasite or virus in culture. Particulars: Hepatitis C virus, read-out: EC50 1b. The class given is cell-based, HCV.

Broadly, the EC50 is the concentration at which the effect is half-maximal.

Take `COc1c(/C=C/c2ccc(NS(C)(=O)=O)cc2)cc(-n2ccc(=O)[nH]c2=O)cc1S(C)(=O)=O` [IB-L1-1.49, (E)-N-(4-(5-(2,4-dioxo-3,4-dihydropyrimidin-1(2H)-yl)-2-methoxy-3-(methylsulfonyl)styryl)phenyl)methanesulfonamide]: the concentration giving a half-maximal response (EC50) in test [1] and in test [2] was more than 1000 nM each time.

Regarding `CC(C)(C)c1cc(/C=C/c2ccc(NS(C)(=O)=O)cc2)cc(N2CCC(=O)NC2=O)c1` [IA-L1-1.16, (E)-N-(4-(3-tert-butyl-5-(2,4-dioxotetrahydropyrimidin-1(2H)-yl)styryl)phenyl)methanesulfonamide], the EC50 in test [1] and in test [2] was 10 to 100 nM each time.

As for `COc1c(-c2ccc3c(c2)CCN(NS(C)(=O)=O)C3)cc(-n2ccc(=O)[nH]c2=O)cc1C(C)(C)C` [IB-L0-2.43, N-(6-(3-tert-butyl-5-(2,4-dioxo-3,4-dihydropyrimidin-1(2H)-yl)-2-methoxyphenyl)-3,4-dihydroisoquinolin-2(1B)-yl)methanesulfonamide], the EC50 in test [1] is more than 1000 nM; in test [2] it was 100 to 1000 nM.

On to `COc1c(/C=C/c2ccc(N)cc2)cc(N2CCC(=O)NC2=O)cc1C(C)(C)C` [IA-L1-1.13, (E)-1-(3-(4-aminostyryl)-5-tert-butyl-4-methoxyphenyl)dihydropyrimidine-2,4(1H,3H)-dione], for which the results for the 50% effective concentration (EC50) in test [1] and in test [2] were more than 1000 nM and 100 to 1000 nM, respectively.

For `CC(C)(C)c1cc(CCc2ccc(NS(C)(=O)=O)cc2)cc(N2CCC(=O)NC2=O)c1` [IA-L5-2-1.2, N-(4-(3-tert-butyl-5-(2,4-dioxotetrahydropyrimidin-1(2H)-yl)phenethyl)phenyl)methane sulfonamide], the EC50 in test [1] and in test [2] was 100 to 1000 nM throughout.

Turning to `COc1c(-c2ccccc2)cc(-n2ccc(=O)[nH]c2=O)cc1-c1ccc2cc(NS(C)(=O)=O)ccc2c1` [IB-L0-2.71, N-(6-(5-(2,4-dioxo-3,4-dihydropyrimidin-1(2H)-yl)-2-methoxy-biphenyl-3-yl)naphthalen-2-yl)methanesulfonamide], the EC50 in test [1] lay in the range of 100 to 1000 nM; in test [2] it was 10 to 100 nM.

With `COc1c(-c2ccc3nc(NS(C)(=O)=O)cnc3c2)cc(-n2ccc(=O)[nH]c2=O)cc1C(C)(C)C` [IB-L0-2.26, N-(6-(3-tert-butyl-5-(2,4-dioxo-3,4-dihydropyrimidin-1(2H)-yl)-2-methoxyphenyl)quinoxalin-2-yl)methanesulfonamide], the EC50 in test [1] was more than 1000 nM; in test [2], 100 to 1000 nM.

On to `COc1c(-c2nc3cc([N+](=O)[O-])ccc3o2)cc(N2CCC(=O)NC2=O)cc1C(C)(C)C` [IA-L0-2.7, 1-(3-tert-butyl-4-methoxy-5-(5-nitrobenzo[d]oxazol-2-yl)phenyl) dihydropyrimidine-2,4(1H,3H)-dione], for which the EC50 in test [1] was more than 1000 nM; in test [2] it was 100 to 1000 nM.

For `COc1c(/C=C(\Cl)c2ccc(NS(C)(=O)=O)cc2)cc(N2CCC(=O)NC2=O)cc1C(C)(C)C` [IA-L1-1.3, (Z)—N-(4-(2-(3-tert-butyl-5-(2,4-dioxotetrahydropyrimidin-1(2H)-yl)-2-methoxyphenyl)-1-chlorovinyl)phenyl)methanesulfonamide], the EC50 in test [1] was 10 to 100 nM; in test [2], less than 10 nM.

On to `COc1c(/C=C/c2ccc(NS(C)(=O)=O)cc2NC(=O)OC(C)(C)C)cc(-n2ccc(=O)[nH]c2=O)cc1C(C)(C)C` [IB-L1-1.32, (E)-tert-butyl 2-(3-tert-butyl-5-(2,4-dioxo-3,4-dihydropyrimidin-1(2H)-yl)-2-methoxystyryl)-5-(methylsulfonamido)phenylcarbamate], for which the figures for the EC50 in test [1] and in test [2] were 100 to 1000 nM and 10 to 100 nM, respectively.

As to `COc1c(/C=C/c2ccc(NS(C)(=O)=O)cc2CN2CC(O)C2)cc(-n2ccc(=O)[nH]c2=O)cc1C(C)(C)C` [IB-L1-1.29, N-[4-{(E)-2-[3-tert-butyl-5-(2,4-dioxo-3,4-dihydro-2H-pyrimidin-1-yl)-2-methoxy-phenyl]-vinyl}-3-(3-hydroxy-azetidin-1-ylmethyl)-phenyl]-methanesulfonamide], the EC50 in test [1] and in test [2] was 100 to 1000 nM each time.

For `COc1c(/C=C/c2ccc(NS(C)(=O)=O)cc2N)cc(-n2ccc(=O)[nH]c2=O)cc1C(C)(C)C` [IB-L1-1.28, (E)-N-(3-amino-4-(3-tert-butyl-5-(2,4-dioxo-3,4-dihydropyrimidin-1(2H)-yl)-2-methoxystyryl)phenyl)methanesulfonamide], the EC50 in test [1] and in test [2] was less than 10 nM each time.

For `COc1c(/C=C(\C)c2ccc(NS(C)(=O)=O)cc2)cc(N2CCC(=O)NC2=O)cc1C(C)(C)C` [IA-L1-1.6, (E)-N-(4-(1-(3-tert-butyl-5-(2,4-dioxotetrahydropyrimidin-1(2H)-yl)-2-methoxyphenyl)prop-1-en-2-yl)phenyl)methanesulfonamide], the EC50 in test [1] and in test [2] was 10 to 100 nM in each case.

Regarding `COc1c(Br)cc(-n2ccc(=O)[nH]c2=O)cc1/C=C/c1ccc(NS(C)(=O)=O)cc1` [IB-L1-1.52, (E)-N-(4-(3-bromo-5-(2,4-dioxo-3,4-dihydropyrimidin-1(2H)-yl)-2-methoxystyryl)phenyl)methanesulfonamide], the EC50 in test [1] was more than 1000 nM; in test [2] it was 100 to 1000 nM.

`CO/N=C/c1cc(NS(C)(=O)=O)ccc1/C=C/c1cc(-n2ccc(=O)[nH]c2=O)cc(C(C)(C)C)c1OC` [IB-L1-1.19]: the EC50 in test [1] is 10 to 100 nM; in test [2] it was less than 10 nM.

Regarding `COc1c(CCc2ccc(NS(C)(=O)=O)cc2)cc(N2CCC(=O)NC2=O)cc1C(C)(C)C` [IA-L5-2-1.1, N-(4-(3-tert-butyl-5-(2,4-dioxotetrahydropyrimidin-1(2H)-yl)-2-methoxyphenethyl)phenyl)methanesulfonamide], the EC50 in test [1] was in the range of 100 to 1000 nM; in test [2], 10 to 100 nM.

On to `COc1c(/C=C/c2ccc(NS(C)(=O)=O)cc2C(=O)N2CCCC2)cc(-n2ccc(=O)[nH]c2=O)cc1C(C)(C)C` [IB-L1-1.27, N-[4-{(E)-2-[3-tert-butyl-5-(2,4-dioxo-3,4-dihydro-2H-pyrimidin-1-yl)-2-methoxy-phenyl]-vinyl}-3-(pyrrolidine-1-carbonyl)-phenyl]-methanesulfonamide], for which the figures for the half-maximal effective concentration (EC50) in test [1] and in test [2] were 10 to 100 nM and less than 10 nM, respectively.

As to `COc1c(Br)cc(-n2ccc(=O)[nH]c2=O)cc1-c1ccc2cc(NS(C)(=O)=O)ccc2c1` [IB-L0-2.69, N-(6-(3-bromo-5-(2,4-dioxo-3,4-dihydropyrimidin-1(2H)-yl)-2-methoxyphenyl)naphthalen-2-yl)methanesulfonamide], the EC50 in test [1] is 100 to 1000 nM; in test [2], 10 to 100 nM.

Turning to `COc1c(/C=C(\Cl)c2ccc([N+](=O)[O-])cc2)cc(N2CCC(=O)NC2=O)cc1C(C)(C)C` [IA-L1-1.23, 1-{3-tert-butyl-5-[(Z)-2-chloro-2-(4-nitro-phenyl)-vinyl]-4-methoxy-phenyl}-dihydro-pyrimidine-2,4-dione], the EC50 in test [1] and in test [2] was more than 1000 nM throughout.

For the molecule `COc1c(/C=C/c2ccc(NS(C)(=O)=O)cc2C(=O)O)cc(-n2ccc(=O)[nH]c2=O)cc1C(C)(C)C` [IB-L1-1.4, (E)-2-(3-tert-butyl-5-(2,4-dioxo-3,4-dihydropyrimidin-1(2H)-yl)-2-methoxystyryl)-5-(methylsulfonamido)benzoic acid], the EC50 in test [1] is 10 to 100 nM; in test [2] it was less than 10 nM.

With `COc1c(/C=C(/F)c2ccc(NS(C)(=O)=O)cc2)cc(N2CCC(=O)NC2=O)cc1C(C)(C)C` [IA-L1-1.5, (E)-N-(4-(2-(3-tert-butyl-5-(2,4-dioxotetrahydropyrimidin-1(2H)-yl)-2-methoxyphenyl)-1-fluorovinyl)phenyl)methanesulfonamide], the EC50 in test [1] is 10 to 100 nM; in test [2], less than 10 nM.

Turning to `COc1c(/C=C/c2ccc(NS(C)(=O)=O)cc2)cc(-n2ccc(=O)[nH]c2=O)cc1C(C)(C)C` [IB-L1-1.1, (E)-N-(4-(3-tert-butyl-5-(2,4-dioxo-3,4-dihydropyrimidin-1(2H)-yl)-2-methoxystyryl)phenyl)methanesulfonamide], the concentration giving a half-maximal response (EC50) in test [1] and in test [2] was less than 10 nM in each case.

For `COc1c(/C=C/c2ccc(NS(C)(=O)=O)cc2C(=O)N(C)C2CCS(=O)(=O)C2)cc(-n2ccc(=O)[nH]c2=O)cc1C(C)(C)C` (stereo not drawn) [IB-L1-1.18, 2-{(E)-2-[3-tert-butyl-5-(2,4-dioxo-3,4-dihydro-2H-pyrimidin-1-yl)-2-methoxy-phenyl]-vinyl}-N-(1,1-dioxo-tetrahydro-1lambda*6*-thiophen-3-yl)-5-methanesulfonylamino-N-methyl-benzamide], the EC50 in test [1] and in test [2] was 10 to 100 nM each time.

Consider `COc1c(/C=C/c2ccc(NS(C)(=O)=O)cc2COC(C)C)cc(-n2ccc(=O)[nH]c2=O)cc1C(C)(C)C` [IB-L1-1.25, N-(4-{(E)-2-[3-tert-butyl-5-(2,4-dioxo-3,4-dihydro-2H-pyrimidin-1-yl)-2-methoxy-phenyl]-vinyl}-3-isopropoxymethyl-phenyl)-methanesulfonamide], for which the EC50 was 10 to 100 nM in test [1] and less than 10 nM in test [2].

In the case of `COc1c(/C=C/c2ccccc2)cc(N2CCC(=O)NC2=O)cc1C(C)(C)C` [IA-L1-1.18, (E)-1-(3-tert-butyl-4-methoxy-5-styrylphenyl)dihydro-pyrimidine-2,4(1H,3H)-dione], the EC50 in test [1] and in test [2] was 100 to 1000 nM each time.

Regarding `COc1c(-c2nc3cc(NS(C)(=O)=O)ccc3o2)cc(N2CCC(=O)NC2=O)cc1C(C)(C)C` [IA-L0-2.8, N-(2-(3-tert-butyl-5-(2,4-dioxotetrahydropyrimidin-1(2H)-yl)-2-methoxyphenyl)benzo[d]oxazol-5-yl)methanesulfonamide], the EC50 in test [1] was 100 to 1000 nM; in test [2], 10 to 100 nM.

With `COc1c(-c2ccoc2)cc(-n2ccc(=O)[nH]c2=O)cc1-c1ccc2cc(NS(C)(=O)=O)ccc2c1` [IB-L0-2.64, N-(6-(5-(2,4-dioxo-3,4-dihydropyrimidin-1(2H)-yl)-3-(furan-3-yl)-2-methoxyphenyl)naphthalen-2-yl)methanesulfonamide], the figures for the EC50 in test [1] and in test [2] were 100 to 1000 nM and less than 10 nM, respectively.
